Experimental data taken from US20100130408A1, “USE OF MODIFIED CYCLOSPORINS” (priority 2006, published 2010).

How the values were obtained:
[1] = target: T1, human recombinant cyclophilin (Homo sapiens, UniProt P62937); experiment: competitive ELISA, cyclophilin on coated BSA-cyclosporin A, reference cyclosporin A; conditions: scale: log10
[2] = target: T1, human recombinant cyclophilin; experiment: competitive ELISA cyclophilin binding test (Binding Ratio); conditions: log to the base 10 of IC50 test compound / IC50 cyclosporin A
Protocol: A cyclosporin is considered as binding to cyclophilin if it binds to human recombinant cyclophilin at least one fifth as well as does cyclosporin A in the competitive ELISA test described by Quesniaux in Eur. J. Immunol. 1987 17 1359-1365. In this test, the cyclosporin to be tested is added during the incubation of cyclophilin with coated BSA-cyclosporin A and the concentration required to give a 50% inhibition of the control reaction without competitor is calculated (IC50). The results are expressed as the Binding Ratio (BR), which is the log to the base 10 of the ratio of the IC50 of the test compound and the IC50 in a simultaneous test of cyclosporin A itself.

Balb/c spleen cells = experiment: Mixed Lymphocyte Reaction (MLR); assay type: cell-based, mice; conditions: percentage of the activity relative to Cyclosporin A
Protocol: A cyclosporin is considered to be non-immunosuppressive when it has an activity in the Mixed Lymphocyte Reaction (MLR) of no more than 5%, preferably no more than 2%, that of cyclosporin A. The Mixed Lymphocyte Reaction is described by T. Meo in “Immunological Methods”, L. Lefkovits and B. Peris, Eds., Academic Press, N.Y. pp. 227-239 (1979). Spleen cells (0.5×106) from Balb/c mice (female, 8-10 weeks) are co-incubated for 5 days with […] irradiated (2000 reds) or mitomycin C treated spleen cells from CBA mice (female, 8-10 weeks). The irradiated allogeneic cells induce a proliferative response in the Balb/c spleen cells which can be measured by labeled precursor incorporation into the DNA. […] The IC50 found for the test compound in the MLR is compared with that found for cyclosporin A in a parallel experiment. In addition, non-immunosuppressive cyclosporins lack the capacity of inhibiting CN and the downstream NF-AT pathway.

HCV = conditions: Watashi et al., Hepatology (2003); cited from earlier work
HSCs = conditions: cited from earlier work

T1 sequence (P62937 whole entry): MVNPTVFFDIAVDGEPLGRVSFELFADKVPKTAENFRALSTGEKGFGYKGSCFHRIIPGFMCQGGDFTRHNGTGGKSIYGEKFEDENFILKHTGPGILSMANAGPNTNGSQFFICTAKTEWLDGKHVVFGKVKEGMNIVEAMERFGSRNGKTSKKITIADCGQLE

Compound	Binding Ratio (BR) [1]	Binding Ratio (BR) [2]	IR = Immunosuppressive Ratio (Balb/c spleen cells) [%]	also measured
[MeVal]^4-Ciclosporin (peptide)	0.1			
[Melle]^4-Ciclosporin		−0.2	< 1	
[dihydro-MeBmt]^1-[y-hydroxy-MeLeu]^4-Ciclosporin		0.1	< 1	
[MeAla]^6-Ciclosporin (peptide)	-0.4			
[y-hydroxy-MeLeu]^4-Ciclosporin (peptide)	0.4			
[Ethyl-Val]^4-Ciclosporin		0	< 2	
[y-hydroxy-MeLeu]^9-Ciclosporin		0.15	2.9	
[Melle]^4-Ciclosporin (peptide)	-0.2			
C=CC[C@@H]1/C=C(\C)C[C@H](C)C[C@H](OC)[C@H]2O[C@@](O)(C(=O)C(=O)N3CCCC[C@H]3C(=O)O[C@H](/C(C)=C/[C@@H]3CC[C@@H](O)[C@H](OC)C3)[C@H](C)[C@@H](O)CC1=O)[C@H](C)C[C@@H]2OC [tacrolimus]				replication of HCV in vitro (HCV): did not show this effect; reduction of collagen production (HSCs; 12.5 nM (10 ng/ml), previously reported in Nakamuta et al): does not significantly reduces collagen production; cell growth and collagen production in HSCs (HSCs; previous evaluation of immunosuppressive drugs): did not have such effects
[y-hydroxy-MeLeu]^9-Ciclosporin (peptide)	0.15			
[MeVal]^5-Ciclosporin		0.4	5.3	
[y-hydroxy-MeLeu]^4-Ciclosporin		0.4	< 1	
[MeVal]^5-Ciclosporin (peptide)	0.4			
[dihydro-MeBmt]^1-[y-hydroxy-MeLeu]^4-Ciclosporin (peptide)	0.1			
[Ethyl-lle]^4-Ciclosporin		0.1	< 2	
[8'-hydroxy-MeBmt]^1-Ciclosporin (peptide)	0.35			
[MeAla]^6-Ciclosporin		−0.4	3.2	
[8′-hydroxy-MeBmt]^1-Ciclosporin		0.35	1.8	
[Ethyl-Val]^4-Ciclosporin (peptide)	0			
[Ethyl-lle]^4-Ciclosporin (peptide)	0.1			
[MeVal]^4-Ciclosporin		0.1	< 1	
